Test results: article PMC9541272, “Carba Analogues of Flupirtine and Retigabine with Improved Oxidation Resistance and Reduced Risk of Quinoid Metabolite Formation” (Chemmedchem, 2022)
“Also recorded” adds a separate entry of the source. Like-named read-outs stand apart in the source and are kept apart here.

Tests used:
[1] = test system: HEP‐G2 human hepatoma cell line; conditions: human, 24 h
[2] = parameters: method as in PMID 25264565; conditions: oral administration of 400 mg flupirtine, modified release dosage form once daily for 8 days; cited from earlier work
[3] = Cyclic voltammetry, anodic peak potential (oxidizability); format: physicochemical; conditions: 0.1 M Tris‐HCl buffer pH 7.4, −0.5 to 1.0 V, sweep rate 0.1 V/s, –[b] = no oxidation observed in the specified potential range
[4] = test system: TAMH mouse liver cell line; conditions: mouse, 24 h
[5] = parameters: method as in earlier work; conditions: severe but sporadic hepatotoxic events; cited from earlier work
KV7.2/3 channel [6] = molecular target: T1, KV7.2/3 channel (Homo sapiens, UniProt O43525+O43526); assay: KV7.2/3 channel opening activity, thallium-flux FLIPR Potassium Assay in HEK-293 cells overexpressing KV7.2/3; parameters: Emax: dose or concentration left out as unconfirmed; conditions: for Emax: HEK293E, read-out: Efficacy; for EC50 (required concentration to reach half‐maximal KV7.2/3 channel opening activity): mean ± SD, at least three determinations; for EC50 (required concentration to reach half‐maximal KV7.2/3 channel opening activity) / Efficacy: –[e] = inactive up to a concentration of 20 μM; for Efficacy: maximal fluorescence signal relative to flupirtine (100 %), HEK‐293
T1 sequence (O43525 whole entry): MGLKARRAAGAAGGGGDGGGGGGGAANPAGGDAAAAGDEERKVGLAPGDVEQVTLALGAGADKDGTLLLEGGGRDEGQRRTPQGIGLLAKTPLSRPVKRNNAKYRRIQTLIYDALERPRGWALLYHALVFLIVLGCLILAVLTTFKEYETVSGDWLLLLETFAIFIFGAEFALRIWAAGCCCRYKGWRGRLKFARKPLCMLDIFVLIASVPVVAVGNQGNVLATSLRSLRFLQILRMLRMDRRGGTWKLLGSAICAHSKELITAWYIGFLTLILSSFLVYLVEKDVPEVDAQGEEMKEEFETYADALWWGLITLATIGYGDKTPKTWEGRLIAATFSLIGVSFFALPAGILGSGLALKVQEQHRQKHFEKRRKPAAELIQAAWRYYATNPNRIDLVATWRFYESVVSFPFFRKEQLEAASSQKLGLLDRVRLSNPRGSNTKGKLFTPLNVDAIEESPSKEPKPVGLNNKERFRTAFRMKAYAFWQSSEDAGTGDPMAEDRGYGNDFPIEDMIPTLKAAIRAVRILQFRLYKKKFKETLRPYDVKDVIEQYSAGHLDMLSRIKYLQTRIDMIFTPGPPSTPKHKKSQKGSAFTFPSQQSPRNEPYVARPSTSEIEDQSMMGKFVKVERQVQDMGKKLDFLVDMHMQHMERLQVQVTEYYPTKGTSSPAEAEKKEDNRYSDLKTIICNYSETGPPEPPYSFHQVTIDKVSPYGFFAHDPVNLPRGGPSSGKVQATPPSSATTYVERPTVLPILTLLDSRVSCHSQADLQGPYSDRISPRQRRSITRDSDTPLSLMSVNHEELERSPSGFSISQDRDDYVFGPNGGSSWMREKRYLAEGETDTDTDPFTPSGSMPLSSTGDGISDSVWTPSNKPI
T1 sequence (O43526 whole entry): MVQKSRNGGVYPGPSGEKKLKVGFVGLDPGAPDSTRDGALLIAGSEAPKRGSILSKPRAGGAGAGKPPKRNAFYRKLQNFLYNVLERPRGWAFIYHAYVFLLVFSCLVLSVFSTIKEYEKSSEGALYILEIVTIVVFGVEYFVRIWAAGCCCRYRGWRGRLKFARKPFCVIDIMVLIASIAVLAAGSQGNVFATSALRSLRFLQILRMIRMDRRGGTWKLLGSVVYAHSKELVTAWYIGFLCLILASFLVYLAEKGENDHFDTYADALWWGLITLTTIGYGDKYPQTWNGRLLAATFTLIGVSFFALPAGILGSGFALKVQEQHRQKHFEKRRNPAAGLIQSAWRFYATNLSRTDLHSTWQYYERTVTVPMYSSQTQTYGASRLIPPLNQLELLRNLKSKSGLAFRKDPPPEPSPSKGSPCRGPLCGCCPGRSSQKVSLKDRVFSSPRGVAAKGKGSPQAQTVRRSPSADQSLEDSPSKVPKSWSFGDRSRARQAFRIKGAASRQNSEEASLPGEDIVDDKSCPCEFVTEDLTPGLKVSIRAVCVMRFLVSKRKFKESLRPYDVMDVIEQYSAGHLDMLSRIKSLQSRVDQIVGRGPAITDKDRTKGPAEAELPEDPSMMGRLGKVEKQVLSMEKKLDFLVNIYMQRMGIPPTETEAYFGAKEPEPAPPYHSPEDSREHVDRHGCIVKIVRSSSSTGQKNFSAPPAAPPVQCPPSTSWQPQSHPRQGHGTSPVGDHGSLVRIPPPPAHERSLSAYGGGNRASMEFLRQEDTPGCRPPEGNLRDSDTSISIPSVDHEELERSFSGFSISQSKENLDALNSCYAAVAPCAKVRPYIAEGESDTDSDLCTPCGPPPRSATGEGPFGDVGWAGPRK

[7] = parameters: method as in guideline OPPTS 830.7570; conditions: reference substances for calibration, Tables S1–S6; ref guideline OPPTS 830.7570; cited from earlier work
KV7.2/3 channel [8] = molecular target: T1, KV7.2/3 channel; parameters: method as in PMID 30990511; conditions: previous work; cited from earlier work
[9] = LogD7.4 estimation by HPLC-based method; format: physicochemical; conditions: for logD7.4 (single determination): calculated from retention time with one calibration function (A–F)
Experimental: The logarithm of the capacity factors of the reference substances was then plotted against the corresponding logP values taken from the mentioned guideline to obtain a calibration function. For non‐ionizable compounds like the reference substances used for calibration, logP values can be considered equivalent to the logD 7.4 values. To obtain a reference mixture, 2 mg of the reference substances were each dissolved in 1 mL of methanol, and 50 μL aliquots of each reference solution were subsequently combined. The reference mixture was measured before and after the substances to be tested, and the mean retention time from both measurements was used to calculate the calibration function. The calibration function was then used to determine the logD 7.4 values from the corresponding retention times for each substance to be tested. The compounds of interest were injected as a solution in methanol (2 mg/mL), and the retention time was determined as the mean value from two measurements.

[10] = pH 7.4, calculated from retention time with one calibration function (A–F), Table S7, read-out: logD7.4 (single determination)
[11] = pH 7.4, estimated by HPLC-based method, pH 7.4, read-out: LogD 7.4
[12] = HEK‐293 cells overexpressing KV7.2/3

Row | Structure (SMILES) | LD25 (concentration to reduce cell viability by 25 %) [1] [µM] | Ep.a. (anodic peak potential) [3] | LD25 (concentration to reduce cell viability by 25 %) [4] [µM] | Emax (KV7.2/3 channel [6]) [%] | logD7.4 (single determination) ([9]; Table S7) | chromatographic logD [9, 10] | chromatographic logD [9, 11] | LD50 (concentration to reduce cell viability by 50 %) [1] [µM] | LD50 (concentration to reduce cell viability by 50 %) [4] [µM] | EC50 (KV7.2/3 channel [6]) [µM] | other results
1 | CCOC(=O)Nc1ccc(NCc2ccc(F)cc2)nc1N [Flu, flupirtine] | 74 ± 40 | 306 mV | 103 ± 47 | 100 | – | – | – | – | – | – | peak plasma concentration [2]: 1.6 µM; LD25 values (range over both liver cell lines) ([4]; human): 74 to 103 µM; reporting rate of hepatotoxic events [5]: 1.68 cases/100,000 patient‐years
2 | O=C(Oc1ccccc1)c1ccccc1 [Phenyl benzoate] | – | – | – | – | – | – | – | – | – | – | logD (Lit.) [7]: 3.6
3 | CCOC(=O)Nc1ccc(NCc2ccc(F)cc2)nc1C [compound 6] | – | – | – | – | – | – | – | – | – | – | KV7.2/3 opening potency (in words) (KV7.2/3 channel [8]): equipotent to flupirtine
4 | CCOC(=O)Nc1ccc(C#Cc2ccccc2)nc1N [compound 21, Ethyl [2‐amino‐6‐(phenylethynyl)pyridin‐3‐yl]carbamate] | >125 | 553 mV | 63 ± 12 | – | 2.983 | 2.99 | 3 | >125 | >125 | > 20 | EC50 (required concentration to reach half‐maximal KV7.2/3 channel opening activity) (KV7.2/3 channel [6]; [12]): –^[e]; Efficacy (KV7.2/3 channel [6]): –^[e]
5 | CCOC(=O)c1ccccc1 [Ethyl benzoate] | – | – | – | – | – | – | – | – | – | – | logD (Lit.) [7]: 2.6
6 | Cc1nc(CNc2ccc(F)cc2)ccc1NC(=O)OCC(C)C [compound 27, Isobutyl (6‐{[(4‐fluorophenyl)amino]methyl}‐2‐methylpyridin‐3‐yl)carbamate] | 136 ± 38 | 648 mV | 76 ± 15 | 94 ± 15 | 3.408 | 3.42 | 3.4 | >250 | >250 | 4.12 ± 3.95 | –
7 | Cc1cc(CNc2ccc(F)cc2)ccc1NC(=O)c1ccccc1CO [compound 48, N ‐(4‐{[(4‐Fluorophenyl)amino]methyl}‐2‐methylphenyl)‐2‐(hydroxymethyl)benzamide] | 80 ± 7 | no anodic peak potential could be determined; also recorded: –^[b] | 70 ± 10 | – | 2.899 | 2.93 | 2.9 | 84 ± 6 | >125 | – | KV7.2/3 opening activity (in words) (KV7.2/3 channel [6]; [12]): inactive; EC50 (required concentration to reach half‐maximal KV7.2/3 channel opening activity) (KV7.2/3 channel [6]; [12]): –^[e]; Efficacy (KV7.2/3 channel [6]): –^[e]
8 | CCCC(=O)Nc1ncc(CNc2ccc(F)cc2)cc1C1CC1 [43 c, N ‐(3‐Cyclopropyl‐5‐{[(4‐fluorophenyl)amino]methyl}pyridin‐2‐yl)butyramide] | 55 ± 17 | 678 mV | 76 ± 52 | 138 ± 20 | 2.772 | 2.77 | 2.8 | >125 | >125 | 2.02 ± 1.2 | fold increase in potency compared to 43 a (KV7.2/3 channel [6]; KV7.2/3 opening, ratio of EC50 values): 2.4 fold; increase in efficiency compared to 43 a (KV7.2/3 channel [6]; difference of efficacy values): 49%
9 | CCCC(=O)Nc1ncc(CNc2ccc(F)cc2)cc1Br [42 a, N ‐(3‐Bromo‐5‐{[(4‐fluorophenyl)amino]methyl}pyridin‐2‐yl)butyramide] | >63 | 668 mV | >63 | 163 ± 23 | 2.714 | 2.71 | 2.7 | >63 | >63 | 5.45 ± 1.7 | –
10 | CCCC(=O)Nc1ccc(CNc2ccc(F)cc2)cn1 [compound 44, N ‐(5‐{[(4‐Fluorophenyl)amino]methyl}pyridin‐2‐yl)butyramide] | – | – | – | – | – | – | – | – | – | – | melting point: 92 °C
